From ChEMBL document CHEMBL3580623, “Minor Structural Change to Tertiary Sulfonamide RORc Ligands Led to Opposite Mechanisms of Action” (ACS Med Chem Lett, 2015) come the findings set out here.

Where only a bound is given, the exact number is not on record here.

Data set [1] addresses T1, Nuclear receptor ROR-gamma (Homo sapiens, UniProt P51449).
T1 sequence (P51449 whole entry): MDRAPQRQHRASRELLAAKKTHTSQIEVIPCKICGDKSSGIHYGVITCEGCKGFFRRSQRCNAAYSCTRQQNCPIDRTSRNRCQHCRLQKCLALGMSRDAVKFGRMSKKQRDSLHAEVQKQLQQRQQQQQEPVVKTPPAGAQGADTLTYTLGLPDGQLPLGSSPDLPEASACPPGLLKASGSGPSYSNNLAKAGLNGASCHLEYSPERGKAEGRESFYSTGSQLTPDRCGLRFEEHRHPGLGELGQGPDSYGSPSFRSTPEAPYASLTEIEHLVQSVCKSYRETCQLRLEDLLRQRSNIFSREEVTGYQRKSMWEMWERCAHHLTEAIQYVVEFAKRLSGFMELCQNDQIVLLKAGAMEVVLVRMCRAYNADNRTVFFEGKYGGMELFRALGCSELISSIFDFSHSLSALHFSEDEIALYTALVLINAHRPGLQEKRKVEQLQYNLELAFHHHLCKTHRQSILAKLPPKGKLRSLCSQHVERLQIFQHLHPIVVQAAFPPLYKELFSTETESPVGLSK
It is filed as functional.

For data set [2], the target named is T1, Nuclear receptor ROR-gamma.
Description: Displacement of [3H2]-25-hydroxycholesterol from N-terminal 6xHis-tagged human RORc ligand binding domain (241 to 486) expressed in bacterial expression system after 3 hrs by scintillation counting analysis
In data set [3] the test system is PBMC. Put plainly: Induction of IL17 production in human PBMC cells after 48 hrs by sandwich ELISA method. In kind it is functional, cell-based.
The subject of data set [4] is PBMC. Put plainly: Effect on IFNgamma production in human PBMC cells after 48 hrs by sandwich ELISA method. In kind it is functional, cell-based.
Data set [5] deals with PBMC. Put plainly: Induction of IL17 production in human PBMC cells after 48 hrs by sandwich ELISA method relative to control. It is filed as functional.
In data set [6] the test system is PBMC. Put plainly: Cytotoxicity against human PBMC assessed as effect on cell physiology after 48 hrs by CellTiter-Glo assay. It is filed as cell-based.
Data set [7] has as its target T1, Nuclear receptor ROR-gamma. It is filed as functional. The source holds these as a separate data set.
Data set [8] relates to PBMC. Put plainly: Inhibition of IL17 production in human PBMC cells after 48 hrs by sandwich ELISA method relative to control. It is filed as functional.
In data set [9] the test system is PBMC. Put plainly: Inhibition of IL17 production in human PBMC cells after 48 hrs by sandwich ELISA method. In kind it is functional, cell-based.
Data set [10] concerns the target T1, Nuclear receptor ROR-gamma. Put plainly: Inverse agonist activity at GAL4-fused human RORc expressed in HEK293T cells assessed as suppression of basal transcriptional activity after 20 hrs by dual-glo luciferase reporter gene assay. It is filed as functional, cell-based, HEK-293T.
In data set [11] the target is T2, Oxysterols receptor LXR-alpha (Homo sapiens, UniProt Q13133).
T2 sequence (Q13133 whole entry): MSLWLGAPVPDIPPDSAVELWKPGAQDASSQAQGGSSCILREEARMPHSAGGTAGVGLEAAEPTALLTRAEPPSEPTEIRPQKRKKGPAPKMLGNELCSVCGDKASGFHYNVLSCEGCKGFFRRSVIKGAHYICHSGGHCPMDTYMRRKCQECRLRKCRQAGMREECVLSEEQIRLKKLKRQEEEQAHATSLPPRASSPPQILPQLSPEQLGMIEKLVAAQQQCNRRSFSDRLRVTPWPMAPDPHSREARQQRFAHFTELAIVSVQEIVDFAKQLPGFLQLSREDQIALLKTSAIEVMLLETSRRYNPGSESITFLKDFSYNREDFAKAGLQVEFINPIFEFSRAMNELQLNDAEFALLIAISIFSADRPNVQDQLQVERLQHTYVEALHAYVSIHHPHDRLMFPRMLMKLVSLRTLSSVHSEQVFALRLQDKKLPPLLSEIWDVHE
Put plainly: Antagonist activity at GAL4-fused human LXRalpha expressed in HEK293T cells assessed as inhibition of agonist-induced transcriptional activity after 20 hrs by dual-glo luciferase reporter gene assay.

In another data set the target is T3, Bile acid receptor (Homo sapiens, UniProt Q96RI1).
T3 sequence (Q96RI1 whole entry): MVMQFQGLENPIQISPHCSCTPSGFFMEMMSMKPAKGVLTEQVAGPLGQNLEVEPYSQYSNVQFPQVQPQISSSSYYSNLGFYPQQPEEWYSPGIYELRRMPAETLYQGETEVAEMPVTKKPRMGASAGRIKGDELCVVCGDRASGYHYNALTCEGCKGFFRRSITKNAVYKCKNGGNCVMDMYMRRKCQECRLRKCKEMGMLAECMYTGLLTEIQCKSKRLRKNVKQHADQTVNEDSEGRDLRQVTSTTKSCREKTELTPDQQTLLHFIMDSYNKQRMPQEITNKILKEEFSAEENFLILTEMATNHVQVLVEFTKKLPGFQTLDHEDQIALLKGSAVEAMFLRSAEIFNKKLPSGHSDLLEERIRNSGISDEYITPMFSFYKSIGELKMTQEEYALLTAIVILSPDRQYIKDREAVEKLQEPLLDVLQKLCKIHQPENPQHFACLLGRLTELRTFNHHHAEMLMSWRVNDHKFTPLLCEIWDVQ
Put plainly: Antagonist activity at GAL4-fused human FXR expressed in HEK293T cells assessed as inhibition of agonist-induced transcriptional activity after 20 hrs by dual-glo luciferase reporter gene assay.

Data set [12] concerns the target T4, Nuclear receptor subfamily 1 group I member 2 (Homo sapiens, UniProt O75469).
T4 sequence (O75469 whole entry): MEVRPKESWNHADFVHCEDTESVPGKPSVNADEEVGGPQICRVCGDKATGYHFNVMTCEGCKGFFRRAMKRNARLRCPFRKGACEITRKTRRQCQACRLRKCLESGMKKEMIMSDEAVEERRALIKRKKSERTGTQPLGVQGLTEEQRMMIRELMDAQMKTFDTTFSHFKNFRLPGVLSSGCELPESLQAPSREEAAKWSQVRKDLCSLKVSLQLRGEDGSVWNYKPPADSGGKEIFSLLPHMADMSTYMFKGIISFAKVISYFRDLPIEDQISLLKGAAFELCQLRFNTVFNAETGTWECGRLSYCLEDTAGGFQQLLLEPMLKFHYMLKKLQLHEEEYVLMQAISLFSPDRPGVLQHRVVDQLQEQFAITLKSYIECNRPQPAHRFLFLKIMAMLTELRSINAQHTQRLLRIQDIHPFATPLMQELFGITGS
Put plainly: Agonist activity at GAL4-fused human PXR expressed in HEK293T cells assessed as activation of basal transcriptional activity after 20 hrs by dual-glo luciferase reporter gene assay. It is filed as cell-based. The following applies: hek-293t.

In data set [13] the target is T5, Nuclear receptor ROR-beta (Homo sapiens, UniProt Q92753).
T5 sequence (Q92753 whole entry): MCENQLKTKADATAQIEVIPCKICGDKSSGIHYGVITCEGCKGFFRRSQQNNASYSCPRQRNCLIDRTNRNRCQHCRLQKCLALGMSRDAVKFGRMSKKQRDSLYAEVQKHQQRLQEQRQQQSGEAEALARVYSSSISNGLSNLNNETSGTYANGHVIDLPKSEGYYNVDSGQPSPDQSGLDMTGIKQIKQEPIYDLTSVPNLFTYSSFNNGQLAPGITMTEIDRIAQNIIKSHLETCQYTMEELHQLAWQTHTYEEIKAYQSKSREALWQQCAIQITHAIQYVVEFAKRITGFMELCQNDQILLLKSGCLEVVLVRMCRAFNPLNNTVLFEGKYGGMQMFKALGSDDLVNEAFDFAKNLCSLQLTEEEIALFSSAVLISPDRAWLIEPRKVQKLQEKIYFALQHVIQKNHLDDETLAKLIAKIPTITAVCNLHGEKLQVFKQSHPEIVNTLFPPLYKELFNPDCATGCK
Put plainly: Inverse agonist activity at GAL4-fused human RORb expressed in HEK293T cells assessed as suppression of basal transcriptional activity after 20 hrs by dual-glo luciferase reporter gene assay. In kind it is cell-based, HEK-293T.

`CC(=O)N1CCN(c2ccc(CN(C3CCC3)S(=O)(=O)Cc3ccc(Cl)cc3)c(F)c2)CC1`: the EC50 in data set [1] came to 33 nM. The compound further came in with an IC50 in data set [2] of 37 nM. As for `CC(=O)N1CCN(c2ccc(CN(C3CCC3)S(=O)(=O)c3ccccc3)c(F)c2)CC1`, the EC50 with PBMC [3] is 780 nM; in the data set on PBMC [4], over 10000 nM; in the data set on PBMC [6], over 20000 nM; in data set [7], 69 nM. The Efficacy in the data set on PBMC [5] was 77%.

On to `CC(=O)N1CCN(c2ccc(CN(C3CCC3)S(=O)(=O)Cc3ccccc3)c(F)c2)CC1`, for which the EC50 in data set [1] was 11 nM; in the data set on PBMC [4], over 10000 nM; in the data set on PBMC [9], 350 nM; in the data set on PBMC [6], over 20000 nM. Moreover, the Efficacy in the data set with PBMC [8] is listed as -79%.

In data set [1], `CC(=O)N1CCN(c2ccc(CN(C3CCC3)S(=O)(=O)CCc3ccccc3)c(F)c2)CC1` gave an EC50 of 310 nM. Turning to `CC(=O)N1CCN(c2ccc(CN(C3CCC3)S(=O)(=O)c3ccccc3F)c(F)c2)CC1`, the concentration giving a half-maximal response (EC50) is 800 nM with PBMC [3], over 10000 nM in the data set on PBMC [4], over 20000 nM with PBMC [6] and 63 nM in data set [7]. In addition, the Efficacy in the data set on PBMC [5] was determined as 71%. Regarding `CC(=O)N1CCN(c2ccc(CN(C3CCC3)S(=O)(=O)Cc3ccccc3F)c(F)c2)CC1`, the EC50 in data set [1] was 3 nM; in data set [10] it was 15 nM; in the data set with PBMC [4], over 10000 nM; in data set [11], 9200 nM; at Bile acid receptor it was 6100 nM; with PBMC [9], 320 nM. Besides, the half-maximal effective concentration (EC50) in data set [13] is 2700 nM; with PBMC [6], over 20000 nM. The Efficacy in the data set with PBMC [8] was -72%. In addition, the Activity result in data set [12] is reported as “Not Active”. `CC(=O)N1CCN(c2ccc(CN(C3CCC3)S(=O)(=O)c3cccc(F)c3)c(F)c2)CC1`: the EC50 in [7] turned out to be 41 nM. As for `CC(=O)N1CCN(c2ccc(CN(C3CCC3)S(=O)(=O)Cc3cccc(F)c3)c(F)c2)CC1`, in data set [1], the concentration giving a half-maximal response (EC50) was 10 nM. In the case of `CC(=O)N1CCN(c2ccc(CN(C3CCC3)S(=O)(=O)c3ccc(F)cc3)c(F)c2)CC1`, the EC50 in data set [1] is over 10000 nM. Take `CC(=O)N1CCN(c2ccc(CN(C3CCC3)S(=O)(=O)Cc3ccc(F)cc3)c(F)c2)CC1`: the EC50 in data set [1] was determined as 7 nM. In data set [7], `CC(=O)N1CCN(c2ccc(CN(C3CCC3)S(=O)(=O)c3ccccc3Cl)c(F)c2)CC1` came in with an EC50 of 47 nM. `CC(=O)N1CCN(c2ccc(CN(C3CCC3)S(=O)(=O)Cc3ccccc3Cl)c(F)c2)CC1` displayed an EC50 in data set [1] of 4 nM. `CC(=O)N1CCN(c2ccc(CN(C3CCC3)S(=O)(=O)c3cccc(Cl)c3)c(F)c2)CC1` showed an EC50 in data set [7] of 50 nM. `CC(=O)N1CCN(c2ccc(CN(C3CCC3)S(=O)(=O)Cc3cccc(Cl)c3)c(F)c2)CC1` showed an EC50 in data set [1] of 9 nM. Still for that read-out and setting: for `CC(=O)N1CCN(c2ccc(CN(C3CCC3)S(=O)(=O)c3ccc(Cl)cc3)c(F)c2)CC1` the value was 190 nM.

The compound `CC(=O)N1CCN(c2ccc(CN(C3CCC3)S(=O)(=O)c3cc(Cl)cc(Cl)c3)c(F)c2)CC1` came in with an EC50 in [7] of 6 nM.

Take `CC(=O)N1CCN(c2ccc(CN(C3CCC3)S(=O)(=O)Cc3cc(Cl)cc(Cl)c3)c(F)c2)CC1`: a half-maximal effect in [1] (EC50) was put at 40 nM.

In [7], `CC(=O)N1CCN(c2ccc(CN(C3CCC3)S(=O)(=O)c3cc(F)cc(F)c3)c(F)c2)CC1` gave an EC50 of 14 nM.

For `COc1cccc(S(=O)(=O)N(Cc2ccc(N3CCN(C(C)=O)CC3)cc2F)C2CCC2)c1`, the EC50 in [7] turned out to be 26 nM. `COc1ccc(S(=O)(=O)N(Cc2ccc(N3CCN(C(C)=O)CC3)cc2F)C2CCC2)cc1` gave a concentration giving a half-maximal response (EC50) in [1] of 3300 nM.

Turning to `CC(=O)N1CCN(c2ccc(CN(C3CCC3)S(=O)(=O)c3ccc(Cl)cc3Cl)c(F)c2)CC1`, the midpoint of the response in data set [1], the EC50, lay at 220 nM.

`CC(=O)N1CCN(c2ccc(CN(C3CCC3)S(=O)(=O)c3ccc(OC(F)F)cc3)c(F)c2)CC1`: the EC50 in data set [1] was found to be 150 nM. In data set [2], this compound registered an IC50 of 31 nM. For `CC(=O)N1CCN(c2ccc(CN(C3CCC3)S(=O)(=O)c3ccc(OC(F)(F)F)cc3)c(F)c2)CC1`, the response in data set [1] was half-maximal at 160 nM (EC50). In data set [1], `CC(=O)N1CCN(c2ccc(CN(C3CCC3)S(=O)(=O)c3ccc(C(F)(F)F)cc3)c(F)c2)CC1` gave an EC50 of 300 nM. On to `CC(=O)N1CCN(c2ccc(CN(C3CCC3)S(=O)(=O)c3ccc(C(C)(C)C)cc3)c(F)c2)CC1`, for which the EC50 in data set [1] turned out to be 120 nM.
